Article PMC7827085 (Pharmaceutics, 2021)

Tests used:
ABCB1/MDR1/Pgp = ABCB1/MDR1/Pgp (Homo sapiens, UniProt P08183); assay: biochemical; conditions: Estimated Transporter Inhibition IC50, ABCB1 vesicular assay, ATP-dependent NMQ uptake, HEK-293/ABCB1 inverted membrane vesicles; '-' = no inhibition
ABCB1/Pgp = biological target: T1, ABCB1/Pgp (Homo sapiens, UniProt P08183); assay: ABCB1-ATPase activity in Sf9 membrane vesicles; type: biochemical
T1 construct: made in house; host or cells: Sf9 insect cells
Experimental: ABC transporter ATPase activity was measured in Sf9 membrane vesicles containing the respective human ABC transporters. For ABCG2/BCRP, the cholesterol level in the vesicles was increased to the level of mammalian cell membranes for full activity. For ABCB1/Pgp 20 μg/150 μL and for ABCG2/BCRP 10 μg/150 μL, vesicles were incubated with 3 mM Mg-ATP for 25 min at 37 °C. The test drugs were dissolved in DMSO and 1 µL was added to the samples. The ABC transporter-related ATPase activity was determined and reference activators (50 µM verapamil for ABCB1 and 5 µM quercetin for ABCG2) served as controls.
Drug-stimulated ATPase activity of the ABCB1 transporter is a well-documented functional assay employed to estimate the substrate or inhibitory features of various drugs. […] In this assay, most transported substrates show a biphasic curve: Low concentrations stimulate, while higher concentrations inhibit, the ATPase activity. In these experiments, we measured the vanadate-sensitive (ABC transporter-related) ABCB1-ATPase activity in membrane vesicles isolated from ABCB1 overexpressing Sf9 cells.

ABCG2/BCRP = biological target: T2, ABCG2/BCRP (Homo sapiens, UniProt Q9UNQ0); assay: ABCG2-ATPase activity in Sf9 membrane vesicles; type: biochemical; parameters: expressed in transfected cells; host or cells: PLB-985; conditions: Sf9/ABCG2 membranes
T2 sequence (Q9UNQ0 1-655): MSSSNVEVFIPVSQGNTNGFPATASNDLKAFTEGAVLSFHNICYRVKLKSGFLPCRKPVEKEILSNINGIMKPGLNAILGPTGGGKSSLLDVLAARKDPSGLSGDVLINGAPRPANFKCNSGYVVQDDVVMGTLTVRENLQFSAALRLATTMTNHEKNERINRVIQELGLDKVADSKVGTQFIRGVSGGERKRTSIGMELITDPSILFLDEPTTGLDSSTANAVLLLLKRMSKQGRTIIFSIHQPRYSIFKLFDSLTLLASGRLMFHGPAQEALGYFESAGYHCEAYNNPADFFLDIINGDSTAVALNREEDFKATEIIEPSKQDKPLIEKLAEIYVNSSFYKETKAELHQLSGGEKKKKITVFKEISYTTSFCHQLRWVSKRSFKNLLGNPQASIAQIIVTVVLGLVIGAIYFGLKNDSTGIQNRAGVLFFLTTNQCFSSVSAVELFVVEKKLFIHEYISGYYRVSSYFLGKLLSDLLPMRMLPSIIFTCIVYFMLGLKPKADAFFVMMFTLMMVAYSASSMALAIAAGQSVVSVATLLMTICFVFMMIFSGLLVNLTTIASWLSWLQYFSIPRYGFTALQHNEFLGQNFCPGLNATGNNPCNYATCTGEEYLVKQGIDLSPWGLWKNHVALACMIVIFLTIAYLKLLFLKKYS
Experimental: ABC transporter ATPase activity was measured in Sf9 membrane vesicles containing the respective human ABC transporters [46, 47, 48, 49, 50]. For ABCG2/BCRP, the cholesterol level in the vesicles was increased to the level of mammalian cell membranes for full activity [49]. For ABCB1/Pgp 20 μg/150 μL and for ABCG2/BCRP 10 μg/150 μL, vesicles were incubated with 3 mM Mg-ATP for 25 min at 37 °C. The test drugs were dissolved in DMSO and 1 µL was added to the samples. The ABC transporter-related ATPase activity was determined and reference activators (50 µM verapamil for ABCB1 and 5 µM quercetin for ABCG2) served as controls.
Drug-stimulated ATPase activity of the ABCG2 transporter was also measured in the present study.

[1] = cited from earlier work
OATP1A2 = biological target: T3, OATP1A2 (Homo sapiens, UniProt P46721); conditions: based on the IC50 values
T3 sequence (P46721 1-670): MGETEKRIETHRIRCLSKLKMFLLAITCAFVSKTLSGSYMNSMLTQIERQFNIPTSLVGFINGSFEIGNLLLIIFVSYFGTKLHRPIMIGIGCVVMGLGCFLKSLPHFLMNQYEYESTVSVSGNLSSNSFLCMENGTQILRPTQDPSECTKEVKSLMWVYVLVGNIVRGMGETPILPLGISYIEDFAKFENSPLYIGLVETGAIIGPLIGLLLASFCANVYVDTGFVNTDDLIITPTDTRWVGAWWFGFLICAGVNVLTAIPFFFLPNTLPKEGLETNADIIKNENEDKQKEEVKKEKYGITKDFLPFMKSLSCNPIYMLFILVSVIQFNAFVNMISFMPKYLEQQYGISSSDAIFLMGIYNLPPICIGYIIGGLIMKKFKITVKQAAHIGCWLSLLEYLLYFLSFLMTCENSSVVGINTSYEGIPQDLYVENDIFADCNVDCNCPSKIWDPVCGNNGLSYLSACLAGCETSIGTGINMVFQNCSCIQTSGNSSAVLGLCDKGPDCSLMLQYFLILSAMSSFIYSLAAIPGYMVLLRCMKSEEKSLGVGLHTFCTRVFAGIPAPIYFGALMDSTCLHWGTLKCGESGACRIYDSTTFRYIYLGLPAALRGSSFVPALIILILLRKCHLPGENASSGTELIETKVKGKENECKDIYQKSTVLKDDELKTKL

T1 sequence (P08183 whole entry): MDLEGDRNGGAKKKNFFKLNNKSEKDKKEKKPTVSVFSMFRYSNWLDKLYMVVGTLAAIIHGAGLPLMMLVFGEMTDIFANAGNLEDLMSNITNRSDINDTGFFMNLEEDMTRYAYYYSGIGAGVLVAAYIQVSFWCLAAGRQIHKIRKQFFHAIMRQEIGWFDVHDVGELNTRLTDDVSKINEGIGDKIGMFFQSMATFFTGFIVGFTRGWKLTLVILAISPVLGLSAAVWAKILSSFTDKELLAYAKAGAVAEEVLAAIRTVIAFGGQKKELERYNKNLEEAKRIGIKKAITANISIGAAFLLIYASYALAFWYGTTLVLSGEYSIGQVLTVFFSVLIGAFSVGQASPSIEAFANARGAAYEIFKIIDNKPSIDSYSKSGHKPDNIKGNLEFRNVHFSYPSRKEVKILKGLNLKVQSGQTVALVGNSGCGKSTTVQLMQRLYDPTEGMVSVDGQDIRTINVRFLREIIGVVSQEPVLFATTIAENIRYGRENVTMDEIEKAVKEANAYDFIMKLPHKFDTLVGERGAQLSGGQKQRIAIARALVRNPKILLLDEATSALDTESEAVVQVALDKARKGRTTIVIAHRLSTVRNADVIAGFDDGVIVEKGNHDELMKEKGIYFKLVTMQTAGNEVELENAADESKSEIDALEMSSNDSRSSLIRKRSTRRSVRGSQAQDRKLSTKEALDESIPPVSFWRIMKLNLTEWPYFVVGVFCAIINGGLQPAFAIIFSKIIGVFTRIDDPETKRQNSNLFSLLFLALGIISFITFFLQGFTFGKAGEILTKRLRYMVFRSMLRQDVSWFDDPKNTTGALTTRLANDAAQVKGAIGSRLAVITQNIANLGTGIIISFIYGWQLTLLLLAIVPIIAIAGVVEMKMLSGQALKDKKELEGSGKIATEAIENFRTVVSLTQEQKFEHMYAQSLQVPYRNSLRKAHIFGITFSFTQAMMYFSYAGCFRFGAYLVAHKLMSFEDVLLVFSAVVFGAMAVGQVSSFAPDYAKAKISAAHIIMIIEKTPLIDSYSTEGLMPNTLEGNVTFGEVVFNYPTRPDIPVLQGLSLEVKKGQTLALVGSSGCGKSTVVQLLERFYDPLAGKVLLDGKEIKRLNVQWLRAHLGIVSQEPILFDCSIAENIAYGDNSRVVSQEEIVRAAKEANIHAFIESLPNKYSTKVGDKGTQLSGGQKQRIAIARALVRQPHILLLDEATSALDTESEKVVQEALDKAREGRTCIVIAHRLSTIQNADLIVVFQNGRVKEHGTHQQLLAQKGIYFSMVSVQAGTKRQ
Sequence of ABCB1/MDR1/Pgp (P08183 whole entry): as above

Row | Compound | IC50 (ABCB1/MDR1/Pgp) | EC50 (ABCB1/Pgp) | Concentration at which ABCB1-ATPase activity was increased (ABCB1/Pgp; Sf9/ABCB1 membranes) | Effect on ABCB1-ATPase activity (in words) (ABCB1/Pgp; Sf9/ABCB1 membranes, 50 µM verapamil as reference activator) | Concentration at which baseline ABCG2-ATPase activity was inhibited (ABCG2/BCRP) | Effect on baseline ABCG2-ATPase activity (in words) (ABCG2/BCRP; ivermectin, ritonavir, lopinavir at low micromolar, remdesivir at higher concentrations) | Plasma concentration, peak values [1] | Reported peak plasma concentration ([1]; reported, reference not given) | Fold lower affinity for OATP1A2 than lopinavir, ritonavir, remdesivir and ivermectin (OATP1A2)
1 | CCC(CC)COC(=O)[C@H](C)N[P@](=O)(OC[C@H]1O[C@@](C#N)(c2ccc3c(N)ncnn23)[C@H](O)[C@@H]1O)Oc1ccccc1 [remdesivir] | > 20 µM | ~10 µM | 10 to 50 µM | significant ABCB1-ATPase stimulation | 20 to 50 µmol | significantly inhibited | 3 to 5 µM | about 5 μM | 
2 | CCN(CCO)CCCC(C)Nc1ccnc2cc(Cl)ccc12 (stereo not drawn) [hydroxychloroquine] |  |  |  |  |  |  |  |  | 3–10 fold
